This note sets out measurements from article PMC12724303 (Journal of Virology, 2025).

Like-named read-outs stand apart in the source and are kept apart here.

One experiment relates to SARS-CoV-2 Delta variant. It is filed as cell-based.
Experiment [1] deals with SARS-CoV-2 Wuhan variant. Put plainly: microbe, parasite or virus in culture. It is filed as cell-based.
Experiment [2] relates to SARS-CoV-2 virion-associated aminophospholipids (procoagulant activity). It is filed as biochemical.
Experiment [3] relates to SARS-CoV-2 Wuhan variant. The experiment is classed as cell-based.
The test system of experiment [4] is SARS-CoV-2 Wuhan variant particles (N protein and spike protein).
Experiment [5] concerns SARS-CoV-2 Wuhan variant virions.
For experiment [6], the system named is SARS-CoV-2 viral particles. It is filed as cell-based.
Experiment [7] concerns SARS-CoV-2 Wuhan variant in Vero E6 cells. It is filed as cell-based.
A further experiment relates to SARS-CoV-2 Beta variant. The experiment is classed as cell-based.
For experiment [8], the system named is SARS-CoV-2 Wuhan variant. It is filed as cell-based. This is another data set of the same source.
Experiment [9] deals with SARS-CoV-2 Wuhan variant in Vero E6/TMPRSS2 cells. It is filed as cell-based.

Turning to `COC[C@H]1O[C@@H]2O[C@H]3[C@H](O)[C@@H](OC)[C@@H](O[C@H]4[C@H](O)[C@@H](OC)[C@@H](O[C@H]5[C@H](O)[C@@H](OC)[C@@H](O[C@H]6[C@H](O)[C@@H](OC)[C@@H](O[C@H]7[C@H](O)[C@@H](OC)[C@@H](O[C@H]8[C@H](O)[C@@H](OC)[C@@H](O[C@H]1[C@H](O)[C@H]2OC)O[C@@H]8COC)O[C@@H]7COC)O[C@@H]6COC)O[C@@H]5COC)O[C@@H]4COC)O[C@@H]3COC` [DM-β-CyD, 2,6-di-O-methyl-β-cyclodextrin], the “infection inhibitory activity (cytopathic effect)” value (“infection inhibitory activity” for short) in the experiment with SARS-CoV-2 Delta variant and with SARS-CoV-2 Wuhan variant [3] was “showed infection inhibitory activity” in each case. In the experiment on SARS-CoV-2 Wuhan variant [1], the “selectivity index (SI = CC50/IC50)” value stood at 4.04. Moreover, in the experiment with SARS-CoV-2 Wuhan variant [1] (Severe acute respiratory syndrome coronavirus 2, VeroE6/TMPRSS2, 72 h, read-out: IC50 against SARS-CoV-2 infection), the IC50 worked out at 1420 µM. The “effect on clotting time” value in experiment [2] (5 mM) was “no effect on clotting time”.

For `COC[C@H]1O[C@@H]2O[C@H]3[C@H](OC(C)=O)[C@@H](OC)[C@@H](O[C@H]4[C@H](OC(C)=O)[C@@H](OC)[C@@H](O[C@H]5[C@H](OC(C)=O)[C@@H](OC)[C@@H](O[C@H]6[C@H](OC(C)=O)[C@@H](OC)[C@@H](O[C@H]7[C@H](OC(C)=O)[C@@H](OC)[C@@H](O[C@H]8[C@H](OC(C)=O)[C@@H](OC)[C@@H](O[C@H]1[C@H](OC(C)=O)[C@H]2OC)O[C@@H]8COC)O[C@@H]7COC)O[C@@H]6COC)O[C@@H]5COC)O[C@@H]4COC)O[C@@H]3COC` [DMA-β-CyD], the figures for the “concentration at the highest dilution completely inhibiting the cytopathic effect” value with SARS-CoV-2 Delta variant, in the experiment on SARS-CoV-2 Beta variant and in the experiment on SARS-CoV-2 Wuhan variant [3] were 156 µM, 625 µM and 156 µM, respectively. In addition, the “highest dilution completely inhibiting the cytopathic effect” value with SARS-CoV-2 Delta variant came out at 64 fold; in the experiment on SARS-CoV-2 Beta variant, 16 fold; in the experiment with SARS-CoV-2 Wuhan variant [3], 64 fold. The “infection inhibitory activity” value in the experiment on SARS-CoV-2 Delta variant and with SARS-CoV-2 Wuhan variant [3] was “showed infection inhibitory activity” throughout. For the same compound, in experiment [4], the “band intensities of N protein and spike protein” value is listed as “marked reduction in the band intensities of both proteins”. Further, in experiment [5], the “binding of viral particles to anti-RBD antibody-coated plate (RNA quantification)” value is reported as “concentration-dependent decrease in binding”. Moreover, in experiment [6], the “reduction of infectivity by pretreatment of viral particles” value is 2.25–2.67. Moreover, the “reduction in TCID50/mL compared with the control” value in experiment [7] turned out to be 2.22. Also, the “effect on clotting time” value is “insufficient recovery of clotting time” in experiment [2] and “markedly prolonged clotting time” in [2] (10 mM, 37°C). Also, in the experiment on SARS-CoV-2 Wuhan variant [8], the “intracellular SARS-CoV-2 gRNA level (viral entry)” value is reported as “decreased in a DMA-β-CyD-concentration-dependent manner”. Also, the viral entry entry with SARS-CoV-2 Wuhan variant [8] is given as “inhibited the entry of these particles”. Also, in experiment [9], the “infectivity of treated virus” value is recorded as 7.34 × 10^3 TCID50/mL.

Consider hydroxypropyl-α-cyclodextrin [HP-α-CyD], for which, in the experiment with SARS-CoV-2 Wuhan variant [3], the “infection inhibitory activity” value is reported as “showed infection inhibitory activity”.
